Our source for the IC50 values is US7875618B2, “Substituted imidazo[1,5-a]quinoxalines useful as inhibitors of phosphodiesterase 10 for the treatment of neurological and other disorders” (Wyeth, priority 2007, dated 2011).

In this experiment the target is T1, human recombinant PDE10A (Homo sapiens, UniProt Q9Y233).
T1 construct: made in house; host or cells: SF21 insect cells (baculovirus)
Briefly: Inhibition of human recombinant PDE10A ([3H]-cAMP SPA, Method B). Format: biochemical. The following applies: read-out: PDE10 inhibition IC50 [nM] PDE10A human. As for the experimental part:
The gene was than inserted into a baculovirus vector, ligated with the baculovirus DNA. The enzyme-protein was expressed in SF21-cells. The enzyme was isolated from these cells by harvesting the cells by a centrifugation at 200 g to collect the cells. The cells were resuspended in 50 mM Tris-HCl/5 mM MgCl2 buffer (pH=7.4) and lysed by a sonication of the cells. The cytosolic PDE10A was obtained by a centrifugation at 48000 g for 1 h in the supernatant and stored at −70° C. PDE10 activity was determined in a one step procedure in microtiterplates. […] Nonspecific activity was tested without the enzyme. The reaction was initiated by addition of the substrate solution and was carried out at 37° C. for 30 minutes. Enzymatic activity was stopped by addition of 25 μl YSi-SPA-beads (Amersham-Pharmacia). One hour later the mixture was measured in a liquid scintillation counter for microtiterplates (Microbeta Trilux). To pipette the incubation mixture a robot Biomek (Fa. Beckman) is used. […] For determination of IC50 values the Hill-plot, 2-parameter-model, was used.

T1 sequence (Q9Y233 1-779 isoform Q9Y233-1): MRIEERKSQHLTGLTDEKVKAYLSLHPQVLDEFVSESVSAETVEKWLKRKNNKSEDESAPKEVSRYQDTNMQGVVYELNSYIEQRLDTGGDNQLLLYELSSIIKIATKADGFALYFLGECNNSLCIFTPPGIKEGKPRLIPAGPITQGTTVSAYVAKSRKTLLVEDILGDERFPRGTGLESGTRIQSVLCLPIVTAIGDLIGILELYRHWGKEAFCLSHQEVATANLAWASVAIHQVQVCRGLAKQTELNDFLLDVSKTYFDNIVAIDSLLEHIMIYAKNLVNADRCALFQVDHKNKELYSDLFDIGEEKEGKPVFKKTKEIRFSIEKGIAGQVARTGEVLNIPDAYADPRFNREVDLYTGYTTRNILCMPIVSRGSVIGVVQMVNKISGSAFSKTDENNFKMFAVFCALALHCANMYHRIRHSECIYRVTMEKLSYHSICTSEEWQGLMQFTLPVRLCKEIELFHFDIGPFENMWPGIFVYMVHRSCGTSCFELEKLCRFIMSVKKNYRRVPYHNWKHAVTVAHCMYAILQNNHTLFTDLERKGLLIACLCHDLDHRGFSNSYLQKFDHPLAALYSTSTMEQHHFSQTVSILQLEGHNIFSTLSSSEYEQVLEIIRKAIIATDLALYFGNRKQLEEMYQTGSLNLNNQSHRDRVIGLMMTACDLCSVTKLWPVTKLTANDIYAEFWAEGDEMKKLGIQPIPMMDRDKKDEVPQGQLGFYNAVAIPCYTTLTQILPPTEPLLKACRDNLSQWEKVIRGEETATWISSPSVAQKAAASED

For `COc1cc(F)c2nc(C)c3c(C)nc(-c4ccccc4C)n3c2c1` [Example 31, 6-Fluoro-8-methoxy-3,4-dimethyl-1-(2-methylphenyl)-imidazo[1,5-a]quinoxaline], the IC50 is at most 10 nM.
With `COc1cc(F)c2nc(C)c3c(C)nc(-c4cccc(F)c4C)n3c2c1` [Example 32, 6-Fluoro-1-(3-fluoro-2-methylphenyl)-8-methoxy-3,4-dimethylimidazo[1,5-a]quinoxaline] the figure was at most 10 nM.
In the case of `COc1cc(F)c2nc(C)c3c(C)nc(-c4ccc(F)cc4Cl)n3c2c1` [Example 33, 1-(2-Chloro-4-fluorophenyl)-6-fluoro-8-methoxy-3,4-dimethylimidazo[1,5-a]quinoxaline], the concentration for half-maximal inhibition (IC50) was at most 10 nM.
With `Cc1nc(F)ccc1-c1nc(C)c2c(C)nc3ccc(Cl)cc3n12` [Example 62, 8-chloro-1-(6-fluoro-2-methylpyridin-3-yl)-3,4-dimethylimidazo[1,5-a]quinoxaline] the figure was 10 to 100 nM; with `Cc1ccccc1-c1nc(C)c2c(C)nc3ccc(Cl)cc3n12` [Example 63, 8-chloro-3,4-dimethyl-1-(2-methylphenyl)imidazo[1,5-a]quinoxaline], at most 10 nM; with `Cc1nc(-c2cccc(C(N)=O)c2)n2c1c(C)nc1ccc(Cl)cc12` [Example 64, 3-(8-chloro-3,4-dimethylimidazo[1,5-a]quinoxalin-1-yl)benzamide], at most 10 nM.
As for `Cc1nc(-c2ccccc2Cl)n2c1c(C)nc1ccc(Cl)cc12` [Example 67, 8-chloro-1-(2-chlorophenyl)-3,4-dimethylimidazo[1,5-a]quinoxaline], the IC50 was at most 10 nM.
Regarding `Cc1nc(-c2ccc(F)c(C(N)=O)c2)n2c1c(C)nc1ccc(Cl)cc12` [Example 68, 5-(8-chloro-3,4-dimethylimidazo[1,5-a]quinoxalin-1-yl)-2-fluorobenzamide], the IC50 fell in the range of 10 to 100 nM.
As for `Cc1nn(C)c(C)c1-c1nc(C)c2c(C)nc3ccc(Cl)cc3n12` [Example 69, 8-chloro-3,4-dimethyl-1-(1,3,5-trimethyl-1H-pyrazol-4-yl)imidazo[1,5-a]quinoxaline], the figure is 10 to 100 nM; as for `Cc1ccccc1-c1nc(C)c2c(C)nc3c(F)cc(F)cc3n12` [Example 70, 6,8-difluoro-3,4-dimethyl-1-(2-methylphenyl)imidazo[1,5-a]quinoxaline], at most 10 nM; as for `COc1nc(C)c2c(C)nc3c(F)cc(F)cc3n12` [Example 73, 6,8-difluoro-1-methoxy-3,4-dimethylimidazo[1,5-a]quinoxaline], at least 100 nM.
As to `COc1cc(F)c2nc(C)c3c(C)nc(-c4ccccc4Cl)n3c2c1` [Example 77, 1-(2-chlorophenyl)-6-fluoro-8-methoxy-3,4-dimethylimidazo[1,5-a]quinoxaline], the concentration for half-maximal inhibition (IC50) was at most 10 nM.
As for `COc1cc(F)c2nc(C)c3c(C)nc(-c4ccc(F)c(C(N)=O)c4)n3c2c1` [Example 78, 2-fluoro-5-(6-fluoro-8-methoxy-3,4-dimethylimidazo[1,5-a]quinoxalin-1-yl)benzamide], the figure is at most 10 nM.
With `COc1ccncc1-c1nc(C)c2c(C)nc3c(OC)cc(F)cc3n12` [Example 80, 8-fluoro-6-methoxy-1-(4-methoxypyridin-3-yl)-3,4-dimethylimidazo[1,5-a]quinoxaline] the figure was at most 10 nM.
As for `COc1cc(F)cc2c1nc(C)c1c(C)nc(-c3ccccc3Cl)n12` [Example 85, 1-(2-chlorophenyl)-8-fluoro-6-methoxy-3,4-dimethylimidazo[1,5-a]quinoxaline], the figure is at most 10 nM; as for `Cc1ccsc1-c1nc(C)c2c(C)nc3ccccc3n12` [Example 99, 3,4-dimethyl-1-(3-methyl-2-thienyl)imidazo[1,5-a]quinoxaline], 10 to 100 nM.
Take `Cc1noc(C)c1-c1nc(C)c2c(C)nc3ccccc3n12` [Example 100, 1-(3,5-dimethylisoxazol-4-yl)-3,4-dimethylimidazo[1,5-a]quinoxaline]: the concentration for half-maximal inhibition (IC50) was at least 100 nM.
With `Cc1nc(-c2cccc(C(N)=O)c2)n2c1c(C)nc1ccccc12` [Example 101, 3-(3,4-dimethylimidazo[1,5-a]quinoxalin-1-yl)benzamide], the IC50 is 10 to 100 nM.
As for `Cc1nc(-c2cc(C(N)=O)ccc2F)n2c1c(C)nc1ccccc12` [Example 102, 3-(3,4-dimethylimidazo[1,5-a]quinoxalin-1-yl)-4-fluorobenzamide], the 50% inhibitory concentration (IC50) lay within 10 to 100 nM.
On to `Cc1nc(F)ccc1-c1nc(C)c2c(C)nc3ccccc3n12` [Example 103, 1-(6-fluoro-2-methylpyridin-3-yl)-3,4-dimethylimidazo[1,5-a]quinoxaline], for which the IC50 fell in the range of 10 to 100 nM.
With `COc1ccc2nc(C)c3c(C)nc(-c4ccc(F)cc4Cl)n3c2c1` [Example 105, 1-(2-chloro-4-fluorophenyl)-8-methoxy-3,4-dimethylimidazo[1,5-a]quinoxaline] the figure was at most 10 nM; with `COc1ccc2nc(C)c3c(C)nc(-c4ccc(Cl)cc4C(F)(F)F)n3c2c1` [Example 106, 1-[4-chloro-2-(trifluoromethyl)phenyl]-8-methoxy-3,4-dimethylimidazo[1,5-a]quinoxaline], 10 to 100 nM.
Consider `COc1ccc2nc(C)c3c(C)nc(-c4cc(Cl)ccc4C)n3c2c1` [Example 107, 1-(5-chloro-2-methylphenyl)-8-methoxy-3,4-dimethylimidazo[1,5-a]quinoxaline], for which the IC50 is at most 10 nM.
As for `COc1ccc2nc(C)c3c(C)nc(-c4ccc(F)cc4C)n3c2c1` [Example 108, 1-(4-fluoro-2-methylphenyl)-8-methoxy-3,4-dimethylimidazo[1,5-a]quinoxaline], the figure is 10 to 100 nM.
As for `COc1ccc2nc(C)c3c(C)nc(-c4cccc(F)c4C)n3c2c1` [Example 109, 1-(3-fluoro-2-methylphenyl)-8-methoxy-3,4-dimethylimidazo[1,5-a]quinoxaline], the figure is at most 10 nM; as for `COc1ccc2nc(C)c3c(C)nc(-c4cnccc4OC)n3c2c1` [Example 110, 8-methoxy-1-(4-methoxypyridin-3-yl)-3,4-dimethylimidazo[1,5-a]quinoxaline], 10 to 100 nM; as for `COc1ccc2nc(C)c3c(C)nc(-c4cccc(C(N)=O)c4)n3c2c1` [Example 112, 3-(8-methoxy-3,4-dimethylimidazo[1,5-a]quinoxalin-1-yl)benzamide], at most 10 nM.
As for `COc1ccc2nc(C)c3c(C)nc(-c4ccc(F)nc4C)n3c2c1` [Example 113, 1-(6-fluoro-2-methylpyridin-3-yl)-8-methoxy-3,4-dimethylimidazo[1,5-a]quinoxaline], the IC50 is 10 to 100 nM.
As for `COc1ccc2nc(C)c3c(C)nc(-c4cc(C(N)=O)ccc4F)n3c2c1` [Example 114, 4-fluoro-3-(8-methoxy-3,4-dimethylimidazo[1,5-a]quinoxalin-1-yl)benzamide], the figure is at most 10 nM.
With `COc1ccc2nc(C)c3c(C)nc(-c4ccccc4C)n3c2c1` [Example 115, 8-methoxy-3,4-dimethyl-1-(2-methylphenyl)imidazo[1,5-a]quinoxaline], the IC50 was at most 10 nM.
With `Cc1nc(F)ccc1-c1nc(C)c2c(C)nc3ccc(OC(F)(F)F)cc3n12` [Example 117, 1-(6-fluoro-2-methylpyridin-3-yl)-3,4-dimethyl-8-(trifluoromethoxy)imidazo[1,5-a]quinoxaline] the figure was 10 to 100 nM.

Broadly, the IC50 is the midpoint of a concentration-inhibition curve.
